This data set can be described thus: solubility in water. Type of data set: physicochemical.

Counter-ions that a name gives are not always drawn.

1 compound from patent US20070053942A1, “Disinfectant and/or bactericidal aqueous compositions” (priority 2003, published 2007) can be followed below.

Turning to `CCCCCCCCNC(=N)NC(=N)NCc1ccc(Cl)c(Cl)c1` [olanexidine hydrochloride, 1-(3,4-dichlorobenzyl)-5-octylbiguanide], under “at 0° C.”, the “solubility (in water) of olanexidine hydrochloride alone” value is given as 0.02% and the solubility in water came out at 0.02 W/V %. In addition, the Solubility (at 25° C., water, pH adjusted to 6) is reported as 0.05 W/V %.
